What was measured:
wild mustard = assay: Test D postemergence; type: in vivo, Sinapis arvensis; conditions: Brassica, post-emergence, scale 0 to 100 (0 no effect, 100 complete control), read-out: Plant response rating, Mustard, Wild
Procedure, shortened: (§1)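 In a controlled growth environment, treated and control plants were held 7 to 21 days, then compared visually. Damage was scored 0–100, where 100 means complete control. Sprays contained surfactant in a non-phytotoxic solvent; post-applied plants were at the 1- to 4-leaf stage.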

field bindweed = assay: Test E postemergence; type: in vivo, Convolvulus arvensis; conditions: Convolvulus arvensis, post-emergence, read-out: Plant response rating, Field Bindweed
Procedure, shortened: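 Response was scored visually on a 0-100 scale (100 = complete control) versus controls after 14 to 21 days in the greenhouse. Test chemicals, formulated with surfactant in a non-phytotoxic solvent mixture, had been applied preemergence to seeds in silt loam soil or postemergence to 1- to 4-leaf plants in potting medium.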

oilseed rape = assay: Test D preemergence; type: in vivo, Brassica napus; conditions: Brassica napus, pre-emergence, scale 0-100, read-out: Plant response rating, Oilseed Rape
Procedure, shortened: as §1

wild radish = assay: Test D postemergence; type: in vivo, Raphanus raphanistrum; conditions: Raphanus raphanistrum, post-emergence, scale 0 to 100 (0 no effect, 100 complete control), read-out: Plant response rating, Radish, Wild
Procedure, shortened: as §1

field violet = assay: Test D postemergence; type: in vivo, Viola arvensis; conditions: Viola arvensis, post-emergence, scale 0 to 100 (0 no effect, 100 complete control), read-out: Plant response rating, Field Violet
Procedure, shortened: as §1

green foxtail = assay: Test D preemergence; type: in vivo, Setaria viridis; conditions: Setaria viridis, pre-emergence, scale 0-100, read-out: Plant response rating, Foxtail, Green
Procedure, shortened: as §1

speedwell = assay: Test D postemergence; type: in vivo, Veronica persica; conditions: Veronica persica, post-emergence, scale 0 to 100 (0 no effect, 100 complete control), read-out: Plant response rating, Speedwell
Procedure, shortened: as §1

bluegrass = assay: Test D preemergence; type: in vivo, Poa annua; conditions: Poa annua, pre-emergence, scale 0-100, read-out: Plant response rating, Bluegrass
Procedure, shortened: as §1

field poppy = assay: Test D postemergence; type: in vivo, Papaver rhoeas; conditions: Papaver rhoeas, post-emergence, scale 0 to 100 (0 no effect, 100 complete control), read-out: Plant response rating, Field Poppy
Procedure, shortened: as §1

deadnettle = assay: Test D postemergence; type: in vivo, Lamium amplexicaule; conditions: Lamium amplexicaule, post-emergence, scale 0 to 100 (0 no effect, 100 complete control), read-out: Plant response rating, Deadnettle
Procedure, shortened: as §1

bromegrass, downy = assay: Test D postemergence; type: in vivo, Bromus tectorum; conditions: Bromus tectorum, post-emergence, Postemergence, scale 0 to 100 (0 no effect, 100 complete control), read-out: Plant response rating, Bromegrass, Downy
Procedure, shortened: as §1

kochia = assay: Test D postemergence; type: in vivo, Kochia scoparia; conditions: Bassia scoparia, post-emergence, scale 0 to 100 (0 no effect, 100 complete control), read-out: Plant response rating, Kochia
Procedure, shortened: as §1

chamomile = assay: Test D postemergence; type: in vivo, Matricaria inodora; conditions: Tripleurospermum inodorum, post-emergence, scale 0 to 100 (0 no effect, 100 complete control), read-out: Plant response rating, Chamomile
Procedure, shortened: as §1

N#Cc1cccc(Oc2ncc(Br)cn2)c1-n1cc(C(F)(F)F)cn1 [Compound 59, 3-[(5-bromo-2-pyrimidinyl)oxy]-2-[4-(trifluoromethyl)-1H-pyrazol-1-yl]benzonitrile]
pest or weed control at 31 g/ha (wild mustard; 31 g ai/ha): 100%
pest or weed control at 62 g/ha (wild mustard; 62 g ai/ha): 95%
pest or weed control at 125 g/ha (wild mustard; 125 g ai/ha): 100%
pest or weed control at 250 g/ha (wild mustard; 250 g ai/ha): 100%
pest or weed control at 31 g/ha (field bindweed; Postemergence, 31 g ai/ha, scale 0 to 100): 60%
pest or weed control at 62 g/ha (field bindweed; Postemergence, 62 g ai/ha, scale 0 to 100): 65%
pest or weed control at 125 g/ha (field bindweed; Postemergence, 125 g ai/ha, scale 0 to 100): 70%
pest or weed control at 250 g/ha (field bindweed; Postemergence, 250 g ai/ha, scale 0 to 100): 80%
pest or weed control at 16 g/ha (field bindweed; postemergence, 16 g ai/ha, scale 0 to 100, 0 no effect, 100 complete control): 50%
plant injury at 31 g/ha (oilseed rape; 31 g ai/ha): 65%
plant injury at 62 g/ha (oilseed rape; 62 g ai/ha): 60%
plant injury at 125 g/ha (oilseed rape; 125 g ai/ha): 100%
plant injury at 250 g/ha (oilseed rape; 250 g ai/ha): 100%
pest or weed control at 31 g/ha (wild radish; 31 g ai/ha): 35%
pest or weed control at 62 g/ha (wild radish; 62 g ai/ha): 70%
pest or weed control at 125 g/ha (wild radish; 125 g ai/ha): 80%
pest or weed control at 250 g/ha (wild radish; 250 g ai/ha): 85%
pest or weed control at 31 g/ha (field violet; 31 g ai/ha): 100%
pest or weed control at 62 g/ha (field violet; 62 g ai/ha): 100%
pest or weed control at 125 g/ha (field violet; 125 g ai/ha): 100%
pest or weed control at 250 g/ha (field violet; 250 g ai/ha): 100%
pest or weed control at 31 g/ha (green foxtail; 31 g ai/ha): 35%
pest or weed control at 62 g/ha (green foxtail; 62 g ai/ha): 100%
pest or weed control at 125 g/ha (green foxtail; 125 g ai/ha): 100%
pest or weed control at 250 g/ha (green foxtail; 250 g ai/ha): 100%
pest or weed control at 31 g/ha (speedwell; 31 g ai/ha): 100%
pest or weed control at 62 g/ha (speedwell; 62 g ai/ha): 75%
pest or weed control at 125 g/ha (speedwell; 125 g ai/ha): 100%
pest or weed control at 250 g/ha (speedwell; 250 g ai/ha): 100%
pest or weed control at 31 g/ha (bluegrass; 31 g ai/ha): 5%
pest or weed control at 62 g/ha (bluegrass; 62 g ai/ha): 10%
pest or weed control at 125 g/ha (bluegrass; 125 g ai/ha): 35%
pest or weed control at 250 g/ha (bluegrass; 250 g ai/ha): 85%
pest or weed control at 31 g/ha (field poppy; 31 g ai/ha): 70%
pest or weed control at 62 g/ha (field poppy; 62 g ai/ha): 65%
pest or weed control at 125 g/ha (field poppy; 125 g ai/ha): 100%
pest or weed control at 250 g/ha (field poppy; 250 g ai/ha): 100%
pest or weed control at 31 g/ha (deadnettle; 31 g ai/ha): 70%
pest or weed control at 62 g/ha (deadnettle; 62 g ai/ha): 75%
pest or weed control at 125 g/ha (deadnettle; 125 g ai/ha): 100%
pest or weed control at 250 g/ha (deadnettle; 250 g ai/ha): 100%
pest or weed control at 31 g/ha (bromegrass, downy; 31 g ai/ha): 20%
pest or weed control at 62 g/ha (bromegrass, downy; 62 g ai/ha): 20%
pest or weed control at 125 g/ha (bromegrass, downy; 125 g ai/ha): 25%
pest or weed control at 250 g/ha (bromegrass, downy; 250 g ai/ha): 30%
pest or weed control at 31 g/ha (kochia; 31 g ai/ha): 95%
pest or weed control at 62 g/ha (kochia; 62 g ai/ha): 95%
pest or weed control at 125 g/ha (kochia; 125 g ai/ha): 95%
pest or weed control at 250 g/ha (kochia; 250 g ai/ha): 95%
pest or weed control at 31 g/ha (chamomile; 31 g ai/ha): 5%
pest or weed control at 62 g/ha (chamomile; 62 g ai/ha): 10%
pest or weed control at 125 g/ha (chamomile; 125 g ai/ha): 10%
pest or weed control at 250 g/ha (chamomile; 250 g ai/ha): 15%

Source: patent publication US9695155B2, “Herbicidal substituted pyrimidinyloxy benzene compounds” (E. I. DU PONT DE NEMOURS AND COMPANY, priority 2013, dated 2017)
